These are literature values, as cited in patent US6544543B1, “Periodic constriction of vessels to treat ischemic tissue” (Advanced Cardiovascular Systems, Inc., priority 2000, dated 2003).

The conditions of data set [1]: avidin tetramer binds four biotin molecules in solution, noncovalent interaction.
For data set [2] the following is noted: avidin tetramer-biotin noncovalent interaction.

With “avidin: polypeptide of at least 128 amino acid residues, forms a tetramer, binds four biotin molecules; member of the affinity pair”, the binding constant entry in data set [1] is given as “about 10^15 M^−1”. Further, in data set [2], the half-life in vivo entry is reported as “about 89 days”.
